Several values for one entry are separate records, joined by “and”; a condition that tells them apart may be missing. Equal entries are not always repeated. Where two headings read alike, the source gives them in different places.
Assays:
kidneys [1] = conditions: rats, intravenous co-injection of 400 mg/kg with 111In-DTPA-octretide; cited from earlier work
kidneys [2] = conditions: patients, 111In-DTPA-octretreotide, cited from earlier work
kidneys [3] = assay: Kidney protection / 68Ga-DOTATATE uptake in the kidneys, biodistribution studies in mice; assay type: in vivo; conditions: Amifostine alone at a dose of 0.63 mg/ml, co-administrated with 68Ga-DOTATATE
Experimental: The first i.v. injection of the composition may be scheduled 30 min prior to 68Ga-DOTATATE administration, while the next two injections may be performed at 15 min and 60 min, respectively, after the radiopeptide administration.
Kidney protection effects of Lysine-Arginine (12.4 mg/ml and 12.5 mg/ml, respectively) and commercially available Clinisol® and Gelofusine co-injected with ^68Ga-DOTATATE (40 uCi) are determined based on biodistribution studies in mice. Lysine-Arginine, Clinisol® and Gelofusine solutions were used as positive controls to determine the efficacies of compositions in accordance with embodiments of the invention.
Mice (n=5/group, male 6-8 weeks old) were given tail intravenous injection (200 ul) of respective solutions, 30 min prior to the administration of ^68Ga-DOTATATE, followed by further injections at 15 min and 1 hr post injection. An example of application schedule is illustrated in FIG. 1.
Mice were then sacrificed by CO2 asphyxiation, and kidneys were collected to determine the amounts of radiation absorbed, which are then compared to the total injected radioactive doses.
Mice (n=5/group, male 6-8 weeks old) were given tail intravenous injection (200 ul) of respective solutions, 30 min prior to the administration ^68Ga-DOTATATE, followed by further injections 15 min and 1 hr post injection, as described in Example 1.

SMILES: NCCCC[C@H](N)C(=O)O [L-Lysine]
- kidney protection (kidneys [1]): 40%

SMILES: NCCCC[C@H](N)C(=O)O [lysine]
- kidney protection (kidneys [2]; 25 g of lysine): 17%±9%
- kidney protection (kidneys [2]; infusion of 75 g of lysine): 44%±11%

SMILES: NCCCNCCSP(=O)(O)O [Amifostine]
- kidney protection, Amifostine used alone (kidneys [3]): 12.24% and 12.2%

Reference: US20160143926A1, “COMPOSITIONS AND METHODS FOR THE PREPARATION OF KIDNEY PROTECTIVE AGENTS COMPRISING AMIFOSTINE AND AMINO ACIDS” (priority 2013, published 2016)
